Measured values as given in ChEMBL document CHEMBL1914371, “Development of a bivalent dopamine D₂ receptor agonist” (J Med Chem, 2011).
pEC50, pKi: −log10 of the molar value.

What was measured:
[1] = target: T1, D(2) dopamine receptor (Homo sapiens, UniProt P14416); test: Displacement of [3H]spiperone from human DRD2 short receptor expressed in chinese hamster CHO cells by radioligand binding assay; format: cell-based
[2] = target: T1, D(2) dopamine receptor; test: Displacement of [3H]spiperone from human DRD2 Long receptor expressed in chinese hamster CHO cells by radioligand binding assay; format: cell-based
[3] = target: T2, D(4) dopamine receptor (Homo sapiens, UniProt P21917); test: Displacement of [3H]spiperone from human dopamine D4.4 receptor expressed in chinese hamster CHO cells by radioligand binding assay; format: cell-based
T2 sequence (P21917 whole entry): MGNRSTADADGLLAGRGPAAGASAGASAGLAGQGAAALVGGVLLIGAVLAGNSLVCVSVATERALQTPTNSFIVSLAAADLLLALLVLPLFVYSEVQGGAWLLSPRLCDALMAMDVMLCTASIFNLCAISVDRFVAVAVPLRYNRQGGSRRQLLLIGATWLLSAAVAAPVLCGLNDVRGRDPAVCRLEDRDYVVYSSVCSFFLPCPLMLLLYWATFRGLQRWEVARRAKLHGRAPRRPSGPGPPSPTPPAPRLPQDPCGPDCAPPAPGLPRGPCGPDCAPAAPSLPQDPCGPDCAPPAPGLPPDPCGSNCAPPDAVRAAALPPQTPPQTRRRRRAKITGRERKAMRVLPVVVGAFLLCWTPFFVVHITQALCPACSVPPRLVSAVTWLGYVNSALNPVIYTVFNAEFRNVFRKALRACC

[4] = target: D(1A) dopamine receptor (Sus scrofa, UniProt P50130); test: Displacement of [3H]SCH 23390 from pig dopamine D1 receptor in striatal membrane; format: cell membranes, Striatum
Sequence of D(1A) dopamine receptor (P50130 whole entry): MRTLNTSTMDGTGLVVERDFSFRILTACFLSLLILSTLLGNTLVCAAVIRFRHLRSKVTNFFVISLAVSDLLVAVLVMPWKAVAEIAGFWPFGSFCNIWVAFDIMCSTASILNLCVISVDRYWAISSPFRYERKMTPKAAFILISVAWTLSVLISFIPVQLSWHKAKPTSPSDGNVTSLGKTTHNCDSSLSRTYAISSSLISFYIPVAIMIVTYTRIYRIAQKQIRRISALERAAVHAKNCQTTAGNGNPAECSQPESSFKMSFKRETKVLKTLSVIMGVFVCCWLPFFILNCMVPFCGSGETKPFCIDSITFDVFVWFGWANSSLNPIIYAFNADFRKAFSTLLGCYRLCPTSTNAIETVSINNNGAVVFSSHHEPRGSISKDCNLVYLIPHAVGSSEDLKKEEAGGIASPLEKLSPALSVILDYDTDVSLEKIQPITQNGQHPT

[5] = target: D(3) dopamine receptor (Homo sapiens, UniProt P35462); test: Displacement of [3H]spiperone from human dopamine D3 receptor expressed in chinese hamster CHO cells by radioligand binding assay; format: cell-based
Sequence of D(3) dopamine receptor (P35462 whole entry): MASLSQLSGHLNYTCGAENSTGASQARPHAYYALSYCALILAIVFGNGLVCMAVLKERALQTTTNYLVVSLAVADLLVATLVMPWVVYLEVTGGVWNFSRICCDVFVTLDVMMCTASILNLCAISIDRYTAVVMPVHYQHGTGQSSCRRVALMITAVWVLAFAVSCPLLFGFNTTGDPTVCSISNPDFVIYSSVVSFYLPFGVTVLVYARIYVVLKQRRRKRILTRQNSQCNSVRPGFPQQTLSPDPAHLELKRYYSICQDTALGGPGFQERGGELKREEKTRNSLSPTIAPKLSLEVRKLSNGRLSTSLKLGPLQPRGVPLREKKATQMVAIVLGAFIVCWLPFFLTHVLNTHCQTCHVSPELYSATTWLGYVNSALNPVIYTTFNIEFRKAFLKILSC

[6] = target: T1, D(2) dopamine receptor; test: Antagonist activity at DRD2 Long receptor expressed in CHO cells assessed as […] of forskolin-stimulated cAMP accumulation by bioluminescence assay relative to quinpirole; format: functional, cell-based
[7] = target: T1, D(2) dopamine receptor; test: Agonist activity at DRD2 Long receptor expressed in CHO cells assessed as inhibition of forskolin-stimulated cAMP accumulation by bioluminescence assay; format: functional, cell-based
[8] = target: T1, D(2) dopamine receptor; test: Partial agonist activity at DRD2 Long receptor expressed in CHO cells assessed as inhibition of forskolin-stimulated cAMP accumulation by bioluminescence assay; format: functional, cell-based
[9] = target: T1, D(2) dopamine receptor; test: Partial agonist activity at DRD2 Long receptor expressed in CHO cells assessed as inhibition of forskolin-stimulated cAMP accumulation by bioluminescence assay relative to quinpirole; format: functional, cell-based

T1 sequence (P14416 whole entry): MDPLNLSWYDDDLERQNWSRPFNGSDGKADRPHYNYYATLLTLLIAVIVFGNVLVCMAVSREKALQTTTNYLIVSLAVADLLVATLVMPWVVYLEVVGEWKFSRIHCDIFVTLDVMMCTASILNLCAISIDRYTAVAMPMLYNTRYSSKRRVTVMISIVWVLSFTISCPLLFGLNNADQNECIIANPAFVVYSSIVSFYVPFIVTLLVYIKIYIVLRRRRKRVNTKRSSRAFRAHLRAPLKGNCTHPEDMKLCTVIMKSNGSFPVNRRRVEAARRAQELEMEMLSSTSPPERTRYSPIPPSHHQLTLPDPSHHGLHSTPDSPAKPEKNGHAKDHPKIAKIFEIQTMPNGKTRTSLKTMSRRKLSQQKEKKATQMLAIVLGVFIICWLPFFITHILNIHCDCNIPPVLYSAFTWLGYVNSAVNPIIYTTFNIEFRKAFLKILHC

Row | pKi [1] | pKi [2] | pKi [3] | pKi [4] | pKi [5] | Efficacy [6] | pEC50 [7] | pEC50 [8] | Efficacy [9] | Compound
1 | 6.96 | 6.96 | 6.18 | 5.55 | 7.92 |  |  |  |  | COc1cc(C(=O)NCCCCN2CCN(c3ccccc3OC)CC2)ccc1OCCCc1cn(CCCCCCCCn2cc(CCCOc3ccc(C(=O)NCCCCN4CCN(c5ccccc5OC)CC4)cc3OC)nn2)nn1
2 | 7.77 | 7.60 | 7.40 | 6.70 | 8.70 | < 3% |  |  |  | CCCN(CCCCNC(=O)c1ccc(OCCCc2cn(CCCCCCCCn3cc(CCCOc4ccc(C(=O)NCCCCN5CCN(c6ccccc6OC)CC5)cc4OC)nn3)nn2)c(OC)c1)C1Cc2ccccc2C1
3 | 8.39 | 7.92 | 7.38 | 5.22 | 9.15 |  | 7.89 |  |  | CCCCn1cc(CCCOc2ccc(C(=O)NCCCCN(CCC)C3Cc4ccccc4C3)cc2OC)nn1
4 | 8.06 | 7.85 | 7.66 | 6.48 | 8.92 |  |  | 6.42 | 13% | CCCN(CCCCNC(=O)c1ccc(OCCCc2cn(CCCCCCCCn3cc(CCCOc4ccc(CN5CCN(c6ccccc6OC)CC5)cc4OC)nn3)nn2)c(OC)c1)C1Cc2ccccc2C1
5 | 7.92 | 7.77 | 7.08 | 5.92 | 8.70 |  |  |  |  | CCCCn1cc(CCCOc2ccc(C(=O)NCCCCN3CCN(c4ccccc4OC)CC3)cc2OC)nn1
6 | 7.80 | 7.80 | 7.47 | 6.29 | 8.74 |  | 6.36 |  |  | CCCN(CCCCNC(=O)c1ccc(OCCCc2cn(CCCCCCCCn3cc(CCCOc4ccc(C(=O)NCCCCN(CCC)C5Cc6ccccc6C5)cc4OC)nn3)nn2)c(OC)c1)C1Cc2ccccc2C1
